{"source": "ChEMBL document CHEMBL5390242", "about": "“Design, Synthesis, and Antitumor Efficacy of Substituted 2-Amino[1,2,4]triazolopyrimidines and Related Heterocycles as Dual Inhibitors for Microtubule Polymerization and Janus Kinase 2” (J Med Chem, 2023)", "key": {"[1]": {"target": "Tubulin (Homo sapiens) (UniProt P68371+Q9H4B7+P0DPH7+P68366+Q13509+Q71U36+P04350+Q3ZCM7+P07437+P68363+Q9BQE3+Q6PEY2+Q13885+Q9BVA1+Q9BUF5)", "test": "Disruption of microtubule assembly in human A549 cells at 0.1 uM incubated for 6 hrs by Hoechst33342 staining based immunofluorescence analysis", "assay_type": "cell-based"}, "[2]": {"test": "Oral bioavailability in CD-1 mouse assessed as Oral bioavailability of metabolite at 10 mg/kg,ip measured upto 24 hrs by HPLC-MS/MS analysis", "assay_type": "ADME, organism-based", "details": "in vivo"}, "[3]": {"system": "A549", "test": "Induction of apoptosis in human A549 cells assessed as viable cells at 10 nM incubated for 24 hrs by Annexin V-FITC/PI staining based flow cytometry (reference value: 93 %)", "assay_type": "functional", "details": "read-out: Activity"}, "[4]": {"system": "A549", "test": "Antitumor activity against human A549 cells xenografted in Balb/c mouse assessed as reduction in tumor weight at 50 mg/kg,ip administration measured after 31 days", "assay_type": "functional", "design": "scale not given: the % may be the effect or the level left", "details": "time 31 day"}, "[5]": {"system": "A549", "test": "Induction of apoptosis in human A549 cells at 10 uM incubated for 24 hrs by Annexin V-FITC/PI staining based flow cytometry", "assay_type": "functional"}, "[6]": {"target": "T1, JAK2-STAT3 (Homo sapiens) (UniProt O60674+P40763)", "test": "Inhibition of JAK2/STAT3 signalling pathway in human A549 cells assessed as downregulation of JAK2 phosphorylation incubated for 24 hrs by Western blotting analysis", "assay_type": "cell-based"}, "[7]": {"test": "AUC (0 to infinity) in CD-1 mouse assessed as AUC (0 to infinity) of metabolite at 10 mg/kg,ip measured upto 24 hrs by HPLC-MS/MS analysis", "assay_type": "ADME, organism-based", "design": "time < 24 hrs, dose 10 mg/kg, route ip", "details": "in vivo"}, "[8]": {"system": "A549", "test": "Antitumor activity against human A549 cells xenografted in Balb/c mouse assessed as increase in tumor necrotic cells at 50 mg/kg,ip administration measured after 31 days by Hematoxylin-eosin staining based microscopy", "assay_type": "functional, organism-based", "details": "time 31.0 day"}, "[9]": {"test": "Tmax in CD-1 mouse at 10 mg/kg,ip measured upto 24 hrs by HPLC-MS/MS analysis", "assay_type": "ADME, organism-based", "details": "in vivo"}, "[10]": {"target": "Tyrosine-protein kinase JAK2 (Homo sapiens, UniProt O60674)", "sequence (O60674 whole entry)": "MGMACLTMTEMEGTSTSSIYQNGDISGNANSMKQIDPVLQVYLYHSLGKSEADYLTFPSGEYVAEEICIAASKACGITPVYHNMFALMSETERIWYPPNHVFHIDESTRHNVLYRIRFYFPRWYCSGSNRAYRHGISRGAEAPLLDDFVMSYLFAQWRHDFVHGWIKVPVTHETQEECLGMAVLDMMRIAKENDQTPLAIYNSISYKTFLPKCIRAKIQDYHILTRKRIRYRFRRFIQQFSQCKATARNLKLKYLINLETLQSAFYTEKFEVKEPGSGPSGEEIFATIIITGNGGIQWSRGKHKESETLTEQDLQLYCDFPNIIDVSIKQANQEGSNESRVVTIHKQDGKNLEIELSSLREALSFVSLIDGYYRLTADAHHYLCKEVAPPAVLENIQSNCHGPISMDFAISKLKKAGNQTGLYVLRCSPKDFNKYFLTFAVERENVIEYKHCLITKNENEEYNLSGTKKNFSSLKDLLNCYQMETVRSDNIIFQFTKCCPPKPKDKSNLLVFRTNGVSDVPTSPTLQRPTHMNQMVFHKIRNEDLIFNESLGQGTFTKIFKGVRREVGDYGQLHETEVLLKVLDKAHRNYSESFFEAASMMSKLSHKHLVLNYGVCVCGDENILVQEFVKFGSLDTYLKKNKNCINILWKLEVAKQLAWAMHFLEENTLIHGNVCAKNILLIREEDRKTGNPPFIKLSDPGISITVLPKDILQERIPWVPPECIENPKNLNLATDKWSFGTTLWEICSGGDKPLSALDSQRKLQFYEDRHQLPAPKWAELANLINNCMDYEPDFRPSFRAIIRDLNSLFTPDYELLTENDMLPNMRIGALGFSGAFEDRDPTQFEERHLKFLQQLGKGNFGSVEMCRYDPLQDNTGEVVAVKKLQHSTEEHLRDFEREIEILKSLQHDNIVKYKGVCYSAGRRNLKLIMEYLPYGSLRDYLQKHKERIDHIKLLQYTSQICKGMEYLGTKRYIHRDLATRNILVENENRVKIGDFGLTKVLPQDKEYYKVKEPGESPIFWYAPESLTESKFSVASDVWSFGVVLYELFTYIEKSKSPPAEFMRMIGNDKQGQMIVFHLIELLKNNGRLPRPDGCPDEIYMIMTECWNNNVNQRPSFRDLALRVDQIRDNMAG", "test": "Inhibition of JAK2 (unknown origin) using Poly-(Glu,Tyr 4:1) peptide as substrate at 1 uM in presence of ATP by ADP-Glo reagent based assay relative to control"}, "[11]": {"target": "Tubulin beta (Homo sapiens) (UniProt P68371+Q9H4B7+Q13509+P04350+Q3ZCM7+P07437+Q13885+Q9BVA1+Q9BUF5+A6NNZ2)", "test": "Binding affinity to beta-tubulin colchicine binding site in human A549 cells assessed as inhibition of EBI-beta-tubulin adduct band formation at 1 to 25 uM preincubated for 2 hrs followed by EBI addition measured after 1.5 hrs by EBI competition based Western blotting analysis", "assay_type": "cell-based", "details": "dose 1-25 µM"}, "[12]": {"test": "Toxicity in Balb/c mouse xenografted with human A549 cells assessed as effect on spleen morphology at 50 mg/kg,ip administration measured after 31 days by Hematoxylin-eosin staining based microscopy", "assay_type": "organism-based", "details": "in vivo, 744 h, time 31 day"}, "[13]": {"system": "A549", "test": "Induction of apoptosis in human A549 cells at 20 uM incubated for 24 hrs by Annexin V-FITC/PI staining based flow cytometry", "assay_type": "functional"}, "[14]": {"test": "Metabolic stability in mouse liver microsomes assessed as half life incubated for 10 mins in presence of NADPH by LC-MS/MS analysis", "assay_type": "ADME, Microsome"}, "[15]": {"system": "A549", "test": "Induction of cell cycle arrest in human A549 cells assessed as accumulation of cells at G2/M phase at 10 nM incubated for 24 hrs by PI/RNase staining based flow cytometry analysis", "assay_type": "functional"}, "[16]": {"target": "Tyrosine-protein kinase JAK1 (Homo sapiens, UniProt P23458)", "sequence (P23458 whole entry)": "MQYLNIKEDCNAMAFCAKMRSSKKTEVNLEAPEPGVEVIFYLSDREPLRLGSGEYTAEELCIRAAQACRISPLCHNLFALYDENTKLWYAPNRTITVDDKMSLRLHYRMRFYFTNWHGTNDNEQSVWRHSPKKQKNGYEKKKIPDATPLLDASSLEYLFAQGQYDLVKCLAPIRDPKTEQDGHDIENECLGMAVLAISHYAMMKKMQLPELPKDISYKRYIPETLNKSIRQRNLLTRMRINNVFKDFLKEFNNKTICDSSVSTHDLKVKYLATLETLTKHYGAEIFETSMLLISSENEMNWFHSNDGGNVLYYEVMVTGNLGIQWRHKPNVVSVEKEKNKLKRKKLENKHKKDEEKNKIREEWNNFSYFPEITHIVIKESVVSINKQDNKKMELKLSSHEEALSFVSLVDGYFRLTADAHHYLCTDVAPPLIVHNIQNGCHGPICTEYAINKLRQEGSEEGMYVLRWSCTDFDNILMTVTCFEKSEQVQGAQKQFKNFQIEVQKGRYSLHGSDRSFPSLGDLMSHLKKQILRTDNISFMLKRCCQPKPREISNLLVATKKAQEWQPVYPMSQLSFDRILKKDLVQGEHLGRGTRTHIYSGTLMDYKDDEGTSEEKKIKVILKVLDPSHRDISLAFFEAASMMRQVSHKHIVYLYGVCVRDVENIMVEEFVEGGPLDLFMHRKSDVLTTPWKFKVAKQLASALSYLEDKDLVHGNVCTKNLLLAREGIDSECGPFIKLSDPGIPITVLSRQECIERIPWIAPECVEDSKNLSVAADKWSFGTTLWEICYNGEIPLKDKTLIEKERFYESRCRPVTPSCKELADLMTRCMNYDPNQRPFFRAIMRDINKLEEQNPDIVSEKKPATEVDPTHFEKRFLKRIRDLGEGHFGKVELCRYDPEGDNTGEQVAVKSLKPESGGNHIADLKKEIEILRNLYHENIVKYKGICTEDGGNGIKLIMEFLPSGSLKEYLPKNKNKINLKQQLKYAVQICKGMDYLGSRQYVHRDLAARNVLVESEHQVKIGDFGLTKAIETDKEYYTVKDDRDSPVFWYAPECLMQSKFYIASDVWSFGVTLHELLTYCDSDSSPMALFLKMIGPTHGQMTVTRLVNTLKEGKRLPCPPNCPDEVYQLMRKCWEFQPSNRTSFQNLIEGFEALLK", "test": "Inhibition of JAK1 (unknown origin) using Poly-(Glu,Tyr 4:1) peptide as substrate in presence of ATP by ADP-Glo reagent based assay"}, "[17]": {"system": "A549", "test": "Induction of apoptosis in human A549 cells assessed as necrotic cells at 10 nM incubated for 24 hrs by Annexin V-FITC/PI staining based flow cytometry (reference value: 0.67 %)", "assay_type": "functional"}, "[18]": {"test": "Cytotoxicity against human HaCaT cells assessed as cell growth inhibition incubated for 48 hrs by MTT assay", "assay_type": "toxicity, cell-based"}, "[19]": {"system": "A549", "test": "Induction of mitochondrial membrane potential loss in human A549 cells by measuring green fluorescence at 5 nM incubated for 16 hrs by JC-1 staining based flow cytometry analysis (reference value: 0.7 %)", "assay_type": "functional"}, "[20]": {"test": "Tmax in CD-1 mouse at 1 mg/kg,iv measured upto 24 hrs by HPLC-MS/MS analysis", "assay_type": "ADME, organism-based", "details": "in vivo"}, "[21]": {"system": "A549", "test": "Induction of cell cycle arrest in human A549 cells assessed as accumulation of cells at G2/M phase at 20 nM incubated for 24 hrs by PI/RNase staining based flow cytometry analysis", "assay_type": "functional"}, "[22]": {"system": "A549", "test": "Induction of apoptosis in human A549 cells assessed as increase in intracellular ROS level at 5 to 20 nM incubated for 16 hrs by DCFH-DA staining based fluorescence microscopy", "assay_type": "functional, cell-based", "details": "dose 5-20 nM"}, "[23]": {"target": "T1, JAK2-STAT3 (Homo sapiens)", "test": "Inhibition of JAK2/STAT3 signalling pathway in human A549 cells assessed as effect on STAT3 protein level at 5 to 20 uM incubated for 24 hrs by Western blotting analysis", "assay_type": "cell-based", "details": "dose 5-20 µM"}, "[24]": {"target": "Tubulin (Sus scrofa, UniProt P02554+P02550)", "test": "Inhibition of porcine brain tubulin polymerization measured for 30 mins in presence of GTP by microplate reader assay", "assay_type": "tissue-based"}, "[25]": {"test": "Cytotoxicity against human L02 cells assessed as cell growth inhibition incubated for 48 hrs by MTT assay", "assay_type": "toxicity, cell-based"}, "[26]": {"system": "A549", "test": "Induction of apoptosis in human A549 cells assessed as late apoptotic cells at 20 nM incubated for 24 hrs by Annexin V-FITC/PI staining based flow cytometry (reference value: 1.72 %)", "assay_type": "functional"}, "[27]": {"system": "A549", "test": "Induction of apoptosis in human A549 cells assessed as increase in mitochondrial ROS level at 5 to 20 nM incubated for 16 hrs by MitoSOX red dye based fluorescence microscopy", "assay_type": "functional, cell-based", "details": "dose 5-20 nM"}, "[28]": {"test": "AUC (0 to t) in CD-1 mouse at 10 mg/kg,ip measured upto 24 hrs by HPLC-MS/MS analysis", "assay_type": "ADME, organism-based", "design": "dose 10 mg/kg, time < 24 hrs, route ip", "details": "in vivo"}, "[29]": {"test": "MRT (0 to infinity) in CD-1 mouse at 1 mg/kg,iv measured upto 24 hrs by HPLC-MS/MS analysis", "assay_type": "ADME, organism-based", "details": "in vivo"}, "[30]": {"system": "BXPC-3", "test": "Antiproliferative activity against human BXPC-3 cells assessed as cell growth inhibition incubated for 48 hrs by MTT assay", "assay_type": "functional, cell-based", "details": "BXPC-3, 48 h"}, "[31]": {"target": "T1, JAK2-STAT3 (Homo sapiens)", "test": "Inhibition of JAK2/STAT3 signalling pathway in human A549 cells assessed as downregulation of STAT3 phosphorylation incubated for 24 hrs by Western blotting analysis", "assay_type": "cell-based"}, "[32]": {"system": "CWR22R", "test": "Cytotoxicity against human 22Rv1 cells assessed as cell growth inhibition incubated for 48 hrs by MTT assay", "assay_type": "functional, cell-based", "details": "22Rv1, 48 h"}, "[33]": {"system": "HCT-8", "test": "Antiproliferative activity against human HCT-8 cells assessed as cell growth inhibition incubated for 48 hrs by MTT assay", "assay_type": "functional, cell-based", "details": "HCT-8, 48 h"}, "[34]": {"system": "A549", "test": "Induction of apoptosis in human A549 cells assessed as viable cells at 5 nM incubated for 24 hrs by Annexin V-FITC/PI staining based flow cytometry (reference value: 93 %)", "assay_type": "functional", "details": "read-out: Activity"}}, "note": "Calls of active or inactive are those of the source. No cut-off for these calls is given here."}
{"smiles": "COc1cc(-c2nccc3nc(Nc4cccc5[nH]ccc45)nn23)cc(OC)c1OC", "values": [{"measurement": "Activity", "setting": "[1]", "result": "Active"}, {"measurement": "F", "setting": "[2]", "result": 69.7, "unit": "%"}, {"measurement": "viability at 0.01 µM", "setting": "[3]", "result": 55.4, "unit": "%"}, {"measurement": "Activity", "setting": "[4]", "result": 70, "unit": "%"}, {"measurement": "Activity", "setting": "[5]", "result": 40.6, "unit": "%"}, {"measurement": "inhibition", "setting": "[6]", "result": "Dose-Dependent Effect"}, {"measurement": "AUC", "setting": "[7]", "result": 2604.3, "unit": "ng·h/mL"}, {"measurement": "Activity", "setting": "[8]", "result": "Active"}, {"measurement": "Tmax", "setting": "[9]", "result": 30, "unit": "min"}, {"measurement": "inhibition", "setting": "[10]", "result": 97, "unit": "%"}, {"measurement": "Activity", "setting": "[11]", "result": "Active"}, {"measurement": "Activity", "setting": "[12]", "result": "Non-Toxic"}, {"measurement": "Activity", "setting": "[13]", "result": 80.7, "unit": "%"}, {"measurement": "half-life", "setting": "[14]", "result": 21.7, "unit": "min"}, {"measurement": "Activity", "setting": "[15]", "result": 32.9, "unit": "%"}, {"measurement": "IC50", "setting": "[16]", "result": "> 20000", "unit": "nM"}, {"measurement": "Activity", "setting": "[17]", "result": 2.6, "unit": "%"}, {"measurement": "IC50 at 48 h", "setting": "[18]", "result": 450, "unit": "nM"}, {"measurement": "Activity", "setting": "[19]", "result": 10.9, "unit": "%"}, {"measurement": "Tmax", "setting": "[20]", "result": 6, "unit": "min"}, {"measurement": "Activity", "setting": "[21]", "result": 91.5, "unit": "%"}, {"measurement": "Activity", "setting": "[22]", "result": "Active"}, {"measurement": "inhibition", "setting": "[23]", "result": "inactive"}, {"measurement": "IC50", "setting": "[24]", "result": 1300, "unit": "nM"}, {"measurement": "IC50 at 48 h", "setting": "[25]", "result": 339, "unit": "nM"}, {"measurement": "Activity", "setting": "[26]", "result": 50.8, "unit": "%"}, {"measurement": "Activity", "setting": "[27]", "result": "Active"}, {"measurement": "AUC(0-t) at 24 h", "setting": "[28]", "result": 559, "unit": "ng·h/mL"}, {"measurement": "MRT inf", "setting": "[29]", "result": 426, "unit": "min"}, {"measurement": "IC50", "setting": "[30]", "result": 11, "unit": "nM"}, {"measurement": "inhibition", "setting": "[31]", "result": "Dose-Dependent Effect"}, {"measurement": "IC50", "setting": "[32]", "result": 12.4, "unit": "nM"}, {"measurement": "IC50", "setting": "[33]", "result": 34, "unit": "nM"}, {"measurement": "viability at 0.005 µM", "setting": "[34]", "result": 90.5, "unit": "%"}]}
